Assay results from ChEMBL document CHEMBL5260855, “Design, synthesis and biological evaluation of simplified analogues of MraY inhibitory natural product with rigid scaffold” (Bioorg Med Chem, 2021).

target: T1, Phospho-N-acetylmuramoyl-pentapeptide-transferase (Staphylococcus aureus, UniProt P0C1R8); assay: Inhibition of Staphylococcus aureus MraY using UDP-MurNAc-dansylpentapeptide as substrate incubated for 3 hrs by fluorescence based microplate reader analysis
T1 sequence (P0C1R8 whole entry): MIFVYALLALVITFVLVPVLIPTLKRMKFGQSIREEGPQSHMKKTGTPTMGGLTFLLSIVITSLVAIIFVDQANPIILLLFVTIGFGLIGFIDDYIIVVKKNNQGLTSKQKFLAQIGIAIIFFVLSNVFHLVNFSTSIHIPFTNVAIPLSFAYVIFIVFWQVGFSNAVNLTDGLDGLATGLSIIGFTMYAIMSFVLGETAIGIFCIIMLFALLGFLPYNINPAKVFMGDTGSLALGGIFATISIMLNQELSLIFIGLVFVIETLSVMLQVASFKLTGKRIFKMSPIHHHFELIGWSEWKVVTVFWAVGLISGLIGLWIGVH

| IC50 | Structure (SMILES) |
| --- | --- |
| 90 µM | C#C[C@H](O[C@@H]1O[C@H](CN)[C@@H](O)[C@H]1O)[C@H]1O[C@@H](n2ccc(=O)[nH]c2=O)[C@H](O)[C@@H]1O |
| 2 µM | NC[C@H]1O[C@@H](O[C@@H](C#Cc2ccccc2)[C@H]2O[C@@H](n3ccc(=O)[nH]c3=O)[C@H](O)[C@@H]2O)[C@H](O)[C@@H]1O |
| 4.4 µM | NC[C@H]1O[C@@H](O[C@@H](C#Cc2ccc(C(=O)O)cc2)[C@H]2O[C@@H](n3ccc(=O)[nH]c3=O)[C@H](O)[C@@H]2O)[C@H](O)[C@@H]1O |
| 1.5 µM | NC[C@H]1O[C@@H](O[C@@H](C#Cc2cccc(C(=O)O)c2)[C@H]2O[C@@H](n3ccc(=O)[nH]c3=O)[C@H](O)[C@@H]2O)[C@H](O)[C@@H]1O |
| 0.95 µM | NC[C@H]1O[C@@H](O[C@@H](C#Cc2cccc(NS(=O)(=O)c3ccccc3)c2)[C@H]2O[C@@H](n3ccc(=O)[nH]c3=O)[C@H](O)[C@@H]2O)[C@H](O)[C@@H]1O |
| 1.1 µM | NC[C@H]1O[C@@H](O[C@@H](C#Cc2cccc(C(=O)Nc3ccccc3)c2)[C@H]2O[C@@H](n3ccc(=O)[nH]c3=O)[C@H](O)[C@@H]2O)[C@H](O)[C@@H]1O |
| 32 µM | NC[C@H]1O[C@@H](O[C@@H](CCc2ccccc2)[C@H]2O[C@@H](n3ccc(=O)[nH]c3=O)[C@H](O)[C@@H]2O)[C@H](O)[C@@H]1O |
| 2.1 µM | NC[C@H]1O[C@@H](O[C@@H](C#Cc2ccccc2N)[C@H]2O[C@@H](n3ccc(=O)[nH]c3=O)[C@H](O)[C@@H]2O)[C@H](O)[C@@H]1O |
| 2 µM | Cc1ccccc1C#C[C@H](O[C@@H]1O[C@H](CN)[C@@H](O)[C@H]1O)[C@H]1O[C@@H](n2ccc(=O)[nH]c2=O)[C@H](O)[C@@H]1O |
| 0.65 µM | NC[C@H]1O[C@@H](O[C@@H](C#Cc2cccc(-c3ccccc3)c2)[C@H]2O[C@@H](n3ccc(=O)[nH]c3=O)[C@H](O)[C@@H]2O)[C@H](O)[C@@H]1O |
| 6.7 µM | NC[C@H]1O[C@@H](O[C@@H](C#Cc2cccc(NC(=O)c3ccccc3)c2)[C@H]2O[C@@H](n3ccc(=O)[nH]c3=O)[C@H](O)[C@@H]2O)[C@H](O)[C@@H]1O |
| 1.4 µM | NC[C@H]1O[C@@H](O[C@@H](C#Cc2ccc(NC(=O)c3ccccc3)cc2)[C@H]2O[C@@H](n3ccc(=O)[nH]c3=O)[C@H](O)[C@@H]2O)[C@H](O)[C@@H]1O |
| 0.3 µM | NC[C@H]1O[C@@H](O[C@@H](C#Cc2ccc(N)cc2)[C@H]2O[C@@H](n3ccc(=O)[nH]c3=O)[C@H](O)[C@@H]2O)[C@H](O)[C@@H]1O |
| 1.4 µM | Cc1cccc(C#C[C@H](O[C@@H]2O[C@H](CN)[C@@H](O)[C@H]2O)[C@H]2O[C@@H](n3ccc(=O)[nH]c3=O)[C@H](O)[C@@H]2O)c1 |
| 5.7 µM | NC[C@H]1O[C@@H](O[C@@H](C#Cc2ccccc2C(=O)O)[C@H]2O[C@@H](n3ccc(=O)[nH]c3=O)[C@H](O)[C@@H]2O)[C@H](O)[C@@H]1O |
| 0.9 µM | NC[C@H]1O[C@@H](O[C@@H](C#Cc2ccc(C(=O)Nc3ccccc3)cc2)[C@H]2O[C@@H](n3ccc(=O)[nH]c3=O)[C@H](O)[C@@H]2O)[C@H](O)[C@@H]1O |
| 1.3 µM | Cc1ccc(C#C[C@H](O[C@@H]2O[C@H](CN)[C@@H](O)[C@H]2O)[C@H]2O[C@@H](n3ccc(=O)[nH]c3=O)[C@H](O)[C@@H]2O)cc1 |
| 0.59 µM | NC[C@H]1O[C@@H](O[C@@H](C#Cc2ccc(-c3ccccc3)cc2)[C@H]2O[C@@H](n3ccc(=O)[nH]c3=O)[C@H](O)[C@@H]2O)[C@H](O)[C@@H]1O |
| 1.8 µM | NC[C@H]1O[C@@H](O[C@@H](C#Cc2cccc(N)c2)[C@H]2O[C@@H](n3ccc(=O)[nH]c3=O)[C@H](O)[C@@H]2O)[C@H](O)[C@@H]1O |
| 1 µM | NC[C@H]1O[C@@H](O[C@@H](C#Cc2ccc(NS(=O)(=O)c3ccccc3)cc2)[C@H]2O[C@@H](n3ccc(=O)[nH]c3=O)[C@H](O)[C@@H]2O)[C@H](O)[C@@H]1O |

tested on: not listed separately; assay: Inhibition of bacterial MraY; set-up: species or system Bacteria

| IC50 | Structure (SMILES) |
| --- | --- |
| 0.0038 µM | CCCCCCCCCCCCCCCCC[C@H]1CN[C@@H]([C@H](O[C@@H]2O[C@H](CN)[C@@H](O)[C@H]2O)[C@H]2O[C@@H](n3ccc(=O)[nH]c3=O)[C@H](O)[C@@H]2O)C(=O)N(C)[C@@H]1C(=O)O |
| 0.0027 µM | CCCCCCCCCCCCCCCC[C@H](NC(C)=O)C(=O)NCCCN[C@H](C(=O)O)[C@H](O[C@@H]1O[C@H](CN)[C@@H](O)[C@H]1O)[C@H]1O[C@@H](n2ccc(=O)[nH]c2=O)[C@H](O)[C@@H]1O |

| Structure (SMILES) | IC50 |
| --- | --- |
| CC(C)C[C@H](NC(=O)[C@@H](NC(=O)N[C@H](C(=O)O)C(C)C)[C@@H]1CCNC(=N)N1)C(=O)NCCCN[C@H](C(=O)O)[C@H](O[C@@H]1O[C@H](CN)[C@@H](O)[C@H]1O)[C@H]1O[C@@H](n2ccc(=O)[nH]c2=O)[C@H](O)[C@@H]1O [MURAMYCIN D2] | 0.025 µM |

target: T2, Phospho-N-acetylmuramoyl-pentapeptide-transferase (Bacillus subtilis (strain 168), UniProt Q03521); assay: Inhibition of Bacillus subtilis MraY
T2 sequence (Q03521 whole entry): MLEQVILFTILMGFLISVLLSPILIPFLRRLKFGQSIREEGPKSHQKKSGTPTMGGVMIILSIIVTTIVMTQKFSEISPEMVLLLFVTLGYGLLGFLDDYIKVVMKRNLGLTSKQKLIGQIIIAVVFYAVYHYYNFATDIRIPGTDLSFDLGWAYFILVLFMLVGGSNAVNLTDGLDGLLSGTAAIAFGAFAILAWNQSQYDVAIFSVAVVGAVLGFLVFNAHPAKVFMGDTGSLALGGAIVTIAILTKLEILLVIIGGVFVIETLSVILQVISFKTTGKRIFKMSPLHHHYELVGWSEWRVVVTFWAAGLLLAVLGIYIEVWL

| IC50 | Structure (SMILES) |
| --- | --- |
| 50 µM | NC[C@H]1O[C@@H](O[C@@H](c2cn(Cc3ccc(Cc4ccc(C(=O)c5ccccc5)cc4)cc3)nn2)[C@H]2O[C@@H](n3ccc(=O)[nH]c3=O)[C@H](O)[C@@H]2O)[C@H](O)[C@@H]1O |
